Test results: patent publication US6451999B2, “1-(3-aminoindazol-5-yl)-3-butyl-cyclic urea useful as a HIV protease inhibitor” (Bristol-Myers Squibb Pharma Company, priority 1996, dated 2002)
In brackets after ≈: the same amount, converted by molar mass.

What was measured:
[1] = test system: HIV-1 (RF); assay: HIV RNA assay: microplate based compound evaluation in HIV-1 infected MT-2 cells; assay type: cell-based; conditions: Human immunodeficiency virus 1, MT2, 72 h; HIV-1 (RF) infected MT-2 cells, 3 days of culture; virus dilution selected to standardize the inoculum; read-out: IC90 value (concentration of compound required to reduce the HIV RNA level by 90%)
Protocol: Plasmid pDAB 72 containing both gag and pol sequences of BH10 (bp 113-1816) cloned into PTZ 19R was prepared according to Erickson-Viitanen et al. AIDS Research and Human Retroviruses 1989, 5, 577. The plasmid was linearized with Bam HI prior to the generation of in vitro RNA transcripts using the Riboprobe Gemini system II kit (Promega) with T7 RNA polymerase. Synthesized RNA was purified by treatment with RNase free DNAse (Promega), phenol-chloroform extraction, and ethanol precipitation. RNA transcripts were dissolved in water, and stored at −70° C. The concentration of RNA was determined from the A260.
Biotinylated capture probes were purified by HPLC after synthesis on an Applied Biosystems (Foster City, Calif.) DNA synthesizer by addition of biotin to the 5′ terminal end of the oligonucleotide, using the biotin-phosphoramidite reagent of Cocuzza, Tet. Lett. 1989, 30, 6287. […]
MT-2 and MT-4 cells were maintained in RPMI 1640 supplemented with 5% fetal calf serum (FCS) for MT-2 cells or 10% FCS for MT-4 cells, 2 mM L-glutamine and 50 μg/mL gentamycin, all from Gibco. […] Infectious titers of HIV-1(RF) stocks were 1-3×10^7 PFU (plaque forming units) /mL as measured by plaque assay on MT-2 cells (see below). […]

| IC90 [1] | melting point | SMILES |
| --- | --- | --- |
| 0.2 µg/mL (≈ 0.947 µM) | – | Nc1ccn([C@H]2CC[C@@H](CO)O2)c(=O)n1 [ddC, dideoxycytidine] |
| – | 129 to 131 °C | CCCCN1C(=O)N(Cc2ccc3[nH]nc(N)c3c2)[C@H](Cc2ccccc2)[C@H](O)[C@@H](O)[C@H]1Cc1ccccc1 [Example 1, (4R,5S,6S,7R)-Hexahydro-1-[5-(3-aminoindazole)methyl]-3-butyl-5,6-dihydroxy-4,7-bis[phenylmethyl]-2H-1,3-diazapin-2-one] |
